Measurements reported in article PMC11236979, “Iron-sulphur protein catalysed [4+2] cycloadditions in natural product biosynthesis” (Nature Communications, 2024).

Tested on: T1, VtlG (P450)
T1 construct: recombinant from E. coli, purified; haem P450 monooxygenase
Assay: UPLC product quantification at […] nm, Michaelis-Menten fit
Assay type: biochemical, Streptomyces spiroverticillatus
Settings: mono-hydroxylation of 4 to 6; 5 nM VtlG, commercial spinach Fd 0.1 mg/mL, spinach FNR 1 unit/mL, 1 mM NADPH; 50 mM Tris-HCl pH 7.5, 30 °C

## CC1=CC=CC=CC(C)CNC(=O)CC(=O)C=CC=CCC(O)CC(O)C=CC=C1 (stereo not shown) [compound 4]
  Km: 0.84 ± 0.26 µM
